Here are results for two sequences from patent US11648290B2, “Cartilage-homing peptides” (FRED HUTCHINSON CANCER CENTER, priority 2015, dated 2023).

Data set [1] can be described thus: Peptide resistance to reducing agents (10 mM DTT, RP-HPLC). Format: physicochemical. The conditions noted are these: 10 mM DTT in PBS, room temperature, 30 minutes. Here is the method: Several peptides were suspended in 500 μl of ddH2O to a stock concentration of 2 mg/ml. Reactions were prepared by adding 12.5 μg peptide from the stock solution to a 10 mM solution of DTT in PBS and allowed to incubate at room temperature for 30 minutes. RP-HPLC was run on samples using an Agilent 1260 HPLC equipped with a C-18 Poroshell 120B column. Samples were analyzed by a gradient method with a mobile phase of Solvent A (water with 0.1% TFA) and Solvent B (acetonitrile with 0.1% TFA). Solvent B was ramped up from 5%-45% of the mobile phase over a period of 10 minutes.
Peptides were fractionated by HPLC and without any further sample prep, 5 μl of the sample was injected into the mass spectrometer at 1 mg/ml using a CTCPAL® autosampler. Alternatively, if peptides were provided as a lyophilized powder, the sample was dissolved in 100% water to a concentration of 1 mg/ml a Millipore Ziptip C18® column was used to desalt the peptides prior to injection for ES-MS. The mass spectrometer was calibrated using 5 pmol of mixture of five standard peptides to achieve a high accuracy of mass determination with less than a 10 ppm error. Confirmation of peptide disulfide bond formation was achieved by analyzing the m/z isotopic distribution and the exact charge. All peptides tested are shown under reducing and non-reducing conditions.

Another data set deals with cartilage. The conditions noted are these: 3 hours, ligated kidneys.
The target of the next data set is pepsin (Homo sapiens, UniProt P0DJD8). Nature of the data set: Peptide resistance to pepsin digestion / simulated gastric fluid (RP-HPLC). Format: in vitro ADME. The conditions noted are these: 12.5 ug peptide, 20 ug pepsin, SGF pH 1.05, 30 minutes at 37.5 C. The method, then: SEQ ID NO: 24 peptide and SEQ ID NO: 111 peptide were suspended in 500 μl of ddH2O at a stock concentration of 2 mg/ml. Reactions were prepared with 12.5 μg peptide and 20 μg pepsin in simulated gastric fluid (pH 1.05) and incubated for 30 minutes at 37.5° C. Reactions were quenched with a final concentration of 100 mM Tris base and 10 mM dithiothreitol (DTT). Reversed phase HPLC (RP-HPLC) was run on samples using an Agilent 1260 HPLC equipped with a C-18 Poroshell 120B column. Sample were analyzed by a gradient method with a mobile phase of Solvent A (water with 0.1% TFA) and Solvent B (acetonitrile with 0.1% TFA). Solvent B was ramped up from 5%-45% of the mobile phase over a period of 10 minutes. Peptides were detected at an absorbance of 214 nm and 280 nm.
Sequence of pepsin (P0DJD8 63-388): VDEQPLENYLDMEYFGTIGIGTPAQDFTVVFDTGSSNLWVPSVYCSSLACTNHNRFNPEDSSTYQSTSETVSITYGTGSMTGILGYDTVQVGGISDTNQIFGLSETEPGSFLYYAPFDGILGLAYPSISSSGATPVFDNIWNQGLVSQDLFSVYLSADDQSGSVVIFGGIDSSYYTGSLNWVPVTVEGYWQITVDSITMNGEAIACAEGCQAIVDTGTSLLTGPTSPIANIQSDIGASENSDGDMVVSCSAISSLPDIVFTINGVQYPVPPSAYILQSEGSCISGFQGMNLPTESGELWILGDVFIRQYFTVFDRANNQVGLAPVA

In data set [2] the test system is cartilage (IVD, knee / synovial joints). Nature of the data set: Whole body autoradiography (WBA) of radiolabeled cartilage homing peptides (Example 21). Type of data set: in vivo, Female Harlan athymic nude mice. The method, then:
This example illustrates peptide homing to cartilage mice 5 minutes to 48 hours after administration of a radiolabeled peptide. Signal from the radiolabeled peptides was found in all types of cartilage at each time point examined. Each peptide was radiolabeled by methylating […] as described in EXAMPLE 2. As such, the peptide may contain methyl or dimethyl lysines and a methylated or dimethylated amino terminus. A dose of 100 nmol radiolabeled peptide was administered via tail vein injection in Female Harlan athymic nude mice, weighing 20-25 g. The experiment was done in duplicate (n=2 animals per group). In some animals, kidneys were ligated to prevent renal filtration of the radiolabeled peptides and extend plasma half-life. Each radiolabeled peptide was allowed to freely circulate within the animal for the described time period before the animals were euthanized and sectioned.
Whole body autoradiography (WBA) sagittal sectioning was performed as follows. […] Sections were allowed to desiccate in a freezer prior to imaging.
For the autoradiography imaging, tape mounted thin sections were freeze dried and radioactive samples were exposed to phophoimager plates for 7 days.

A short description of data set [3]: Intravenous and oral administration of radiolabeled peptide: plasma, urine, feces. Type of data set: in vivo, female Harlan athymic nude mice. Here is the method: This example describes intravenous and oral administration of peptides of this disclosure, including transit of the intact peptide through the GI tract and to the feces after oral administration. A radiolabeled peptide of SEQ ID NO: 24 was administered intravenously or orally to female Harlan athymic nude mice, 6-8 weeks of age. Radiolabeled peptides of SEQ ID NO: 24 was administered intravenously (IV) at a dose of 4.8 μCi/20 nmol. Radiolabeled peptide of SEQ ID NO: 24 was administered orally (PO) at a dose of 24 μCi/100 nmol. Mice were euthanized at various time points by CO2 asphyxiation and biological fluids were collected, including blood, urine, and feces. Urine was collected be abdominal palpitation immediately before CO2 asphyxiation. Blood was collected by cardiac puncture immediately after CO2 asphyxiation and centrifuged to separate plasma. Feces was collected either before or after CO2 asphyxiation by palpitation of the colon. Samples were analyzed by HPLC to quantify the concentration or dose of intact peptide recovered in plasma, urine, and feces. For HPLC analysis, urine samples were first diluted at a 1:20 ratio in water and plasma samples were diluted at a 1:5 ratio in water. Feces samples were dissolved in Tris buffer, centrifuged to remove the insoluble fraction, and supernatants were diluted at a 1:1 ratio in water.
The delivered dose of ^14C was 4.8 for intravenous administration and 24 μCi for oral administration. Time points examined included 0.08, 0.5, 1, 3, 8, 24, 48 hours and three mice were examined per time point. […] The delivered dose of ^14C was 4.8 for intravenous administration and 24 μCi for oral administration. Time points examined included 0.08, 0.5, 1, 3, 8, 24, 48 hours and three mice were examined per time point. […] The delivered dose of ^14C was 24 μCi for oral administration. Time points examined included 0.5, 1, and 3 hours. […] The intact peptide was eluted near 6 minutes, whereas cleaved fragments—such as the N-terminal Gly residue—were eluted near 1 minute.
The delivered dose of ^14C was 4.8 μCi for intravenous administration and 24 μCi for oral administration. Time points examined included 0.08, 0.5, 1, 3, 8, 24, 48 hours and three mice were examined per time point. […] The delivered dose of ^14C was 24 μCi for oral administration. Time points examined included 0.5, 1, 3, 8, 24, and 48 hours.
The delivered dose of ^14C was 4.8 μCi for intravenous administration and 24 μCi for oral administration. Time points examined included 0.08, 0.5, 1, 3, 8, 24, 48 hours and three mice were examined per time point. […] The delivered dose of ^14C was 24 μCi for oral administration. Time points examined included 3 and 8 hours.

For the next data set, the system named is pepsin, trypsin. Nature of the data set: HPLC after exposure to oxidative, reductive, acidic conditions and proteinases (FIG. 72). Format: in vitro ADME. The conditions noted are these: pH 1 / SGF pH 1.05, 10 mM DTT, 500 U pepsin, 50 U trypsin. Here is the method: FIG. 72 illustrates HPLC chromatograms of peptides of SEQ ID NO: 111 and SEQ ID NO: 434 after exposure to a range of conditions including oxidative, reductive, and acidic conditions as well as after exposure to proteinases. FIG. 72A illustrates the HPLC trace of a peptide of SEQ ID NO: 111 under reducing and acidic conditions. FIG. 72B illustrates the HPLC trace of a peptide of SEQ ID NO: 111 under various combinations of reducing agents and proteases including 10 mM DTT in 500 U pepsin, 500 U pepsin, 10 mM DTT in 50 U trypsin, and 50 U trypsin. FIG. 72C illustrates the HPLC trace of a peptide of SEQ ID NO: 434 under various protease conditions including in 500 U pepsin, in 50 U trypsin, non-reducing (NR, oxidized conditions) in simulated gastric fluid (SGF) at pH 1.05, and NR.
FIG. 72 illustrates HPLC chromatograms of peptides of SEQ ID NO: 111 and SEQ ID NO: 434 after exposure to a range of conditions including oxidative, reductive, and acidic conditions as well as after exposure to proteinases. The peptide of SEQ ID NO: 434 is a linearized version of the knottin peptide of SEQ ID NO: 111. The peptide of SEQ ID NO: 434 has the same amino acid sequence as the knottin peptide of SEQ ID NO: 111, but with all cysteines mutated to serines. FIG. 72A illustrates the HPLC trace of a peptide of SEQ ID NO: 111 under reducing and acidic conditions. […]

Setting [4] is: 3 hours after 100 nmol radiolabeled peptide.
Setting [5] is: 24 hours after 100 nmol radiolabeled peptide.
[6] abbreviates: 0.08 hours after 100 nmol radiolabeled peptide.
Where [7] appears, read: 0.5 hours after 100 nmol radiolabeled peptide.
The mark [8] stands for this setting: 1 hour after 100 nmol radiolabeled peptide.
[9] abbreviates: 8 hours after 100 nmol radiolabeled peptide.
Where [10] appears, read: 48 hours after 100 nmol radiolabeled peptide.

Turning to “GSGVPINVKCRGSRDCLDPCKKAGMRFGKCINSKCHCTP [SEQ ID NO: 24]”, the “HPLC peaks under non-reducing versus reducing conditions (resistance to reduction by DTT)” value in data set [1] is “Peaks showing the peptide under non-reducing conditions and reducing conditions are overlapping”. For the same sequence, in the data set on cartilage, the “Cartilage types reached (FIGS. 3-4)” value is “homing of SEQ ID NO: 24 to hyaline cartilage such as articular cartilage and physeal cartilage, as well as fibrocartilage”. For the same sequence, the “Resistance to degradation in DTT, SGF, SGF and pepsin, SPTD solutions” value with pepsin is given as “highly resistant to degradation”. The “Signal in IVD as a percentage of the blood” value (“Signal in IVD as a percentage” below) in data set [2] (setting [4]) is 1779%; in data set [2] (setting [5]), 833%. The “Detection of radioactive signal from the dosed peptide in plasma” value in data set [3] (IV 20 nmol / PO 100 nmol) is reported as “at least 50 hours”. In addition, the “Plasma concentration as percent of the dose” value in data set [3] (IV administration, 20 nmol) is listed as “up to 10 % of the dose”; in data set [3] (PO administration, 100 nmol), “up to 1 % of the dose”. In addition, the “Intact peptide in feces” value in data set [3] (oral dosing 100 nmol, 3 and 8 hours) was “detected in feces after oral dosing”. In addition, the “Nature of radioactivity detected in plasma (HPLC / scintillation)” value in data set [3] (oral gavage 100 nmol, 0.5, 1, 3 hours) is “nearly some of all of the radioactivity detected in plasma was due to fragments of the administered peptide”.

For the sequence “GSGVPINVRCRGSRDCLDPCRRAGMRFGRCINSRCHCTP [SEQ ID NO: 111]”, the “HPLC peaks under non-reducing versus reducing conditions (resistance to reduction by DTT)” value in data set [1] is “Peaks showing the peptide under non-reducing conditions and reducing conditions are fully overlapping”. Further, the “Resistance to degradation in DTT, SGF, SGF and pepsin, SPTD solutions” value at pepsin was “similarly highly resistant in the various conditions tested”. In data set [2] (100 nmol), the “Time at which the signal to background ratio in IVD peaked” value turned out to be 24 h. In addition, the “Time at which the signal to background ratio in knee joints peaked” value in data set [2] (100 nmol) is 8 h. For the same sequence, the “Presence of radiolabeled peptide in IVD and synovial joints” value in data set [2] (100 nmol, 5 minutes-48 hours) is “observed in the intervertebral disc (IVD) and synovial joints at all time points (5 minutes-48 hours)”. Moreover, the “Signal in IVD as a percentage” value in data set [2] (setting [6]) worked out at 164%; in data set [2] (setting [7]), 369%; in data set [2] (setting [8]), 961%; in data set [2] (setting [4]), 3213%; in data set [2] (setting [9]), 3777%; in data set [2] (setting [5]), 5391%. Also, the “Signal in IVD as a percentage” value in data set [2] (setting [10]) is reported as 3320%. Further, the “Signal in knee joints as a percentage of the blood” value in data set [2] (setting [6]) is 404%; in data set [2] (setting [7]), 510%; in data set [2] (setting [8]) it was 1114%; in data set [2] (setting [4]) it was 4059%; in data set [2] (setting [9]), 4990%; in data set [2] (setting [5]), 2137%. Also, in data set [2] (setting [10]), the “Signal in knee joints as a percentage of the blood” value was found to be 843%. The “Signal of folded knotted peptide compared to linearized peptide of SEQ ID NO: 434” value in data set [2] (IVD, 3 hours) is on record as about 20 fold. In addition, the “Resistance to degradation (FIG. 72)” value with pepsin, trypsin was “highly resistant to degradation at pH 1, reducing agents, trypsin, and pepsin”.
